These results are taken from publication doi:10.1101/365908v1 (biorxiv, 2018).

The target in the test is T1, human GSDMD (full-length) (Homo sapiens, UniProt P57764).
T1 sequence (P57764 1-484): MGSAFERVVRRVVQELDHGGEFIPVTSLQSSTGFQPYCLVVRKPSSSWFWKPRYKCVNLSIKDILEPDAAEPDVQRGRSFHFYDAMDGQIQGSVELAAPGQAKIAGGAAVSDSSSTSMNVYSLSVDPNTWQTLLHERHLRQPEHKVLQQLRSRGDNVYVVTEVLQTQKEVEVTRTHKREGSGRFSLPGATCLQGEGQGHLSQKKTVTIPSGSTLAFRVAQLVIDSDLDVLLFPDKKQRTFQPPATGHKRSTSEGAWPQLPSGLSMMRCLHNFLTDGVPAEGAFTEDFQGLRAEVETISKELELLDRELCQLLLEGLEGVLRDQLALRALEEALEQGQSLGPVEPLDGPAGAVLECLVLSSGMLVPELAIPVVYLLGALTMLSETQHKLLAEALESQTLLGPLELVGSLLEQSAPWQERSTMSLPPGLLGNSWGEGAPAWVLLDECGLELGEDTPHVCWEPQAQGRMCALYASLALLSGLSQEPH
The test is described as follows: Tb3+/DPA liposome leakage. As to conditions: covalent (Cys191); 1 h preincubation; cleavage by 0.15 µM caspase-11; no Cu(II). The format is biochemical.

Molecule `CCN(CC)C(=S)SSC(=S)N(CC)CC` [C-23, Tetraethylthiuram disulfide] had an IC50 of 300 ± 10 nM.

Usually IC50 stands for the concentration that gives 50% inhibition. A lower IC50 goes with higher potency.
